In publication PMC7594070, “N-Alkylated Iminosugar Based Ligands: Synthesis and Inhibition of Human Lysosomal β-Glucocerebrosidase” (Molecules, 2020) one finds Ki data, which are given here for twelve compounds.

Like-named read-outs stand apart in the source and are kept apart here.

Common to all, as to type: biochemical
Experiment [1] has as its target T1, β-glucosidase/β-galactosidase from Agrobacterium sp. (Abg, GH1) (Agrobacterium sp., UniProt P12614).
T1 sequence (P12614 1-459): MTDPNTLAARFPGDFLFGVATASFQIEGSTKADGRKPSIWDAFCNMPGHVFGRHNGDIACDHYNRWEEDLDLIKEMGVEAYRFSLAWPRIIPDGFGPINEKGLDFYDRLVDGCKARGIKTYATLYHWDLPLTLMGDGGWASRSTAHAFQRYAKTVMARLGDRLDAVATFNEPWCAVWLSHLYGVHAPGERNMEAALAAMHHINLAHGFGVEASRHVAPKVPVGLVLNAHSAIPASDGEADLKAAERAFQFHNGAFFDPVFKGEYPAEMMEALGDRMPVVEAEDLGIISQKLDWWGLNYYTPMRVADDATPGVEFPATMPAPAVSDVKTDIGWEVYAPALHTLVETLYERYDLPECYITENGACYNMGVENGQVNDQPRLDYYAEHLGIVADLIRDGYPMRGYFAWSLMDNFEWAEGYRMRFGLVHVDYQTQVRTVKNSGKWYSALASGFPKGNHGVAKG
Nature of the experiment: Ki determination, Agrobacterium sp. β-glucosidase (Abg). To be noted: pH 7, substrate pNP β-Gal, room temperature; read-out: Ki Abg (GH1) β-Glc/Gal. Here is the method: (§1) Kinetic studies were performed at room temperature in an appropriate buffer for each enzyme (specific conditions can be found below). All the reactions were performed in half-area 96-well-plates (Corning, Corning, NY, USA) and monitored with a Synergy H1 plate reader (BioTek Instruments, Winooski, VT, USA). In each experiment, the appropriate concentration of the enzyme was incubated with different concentrations of the inhibitors for 2–5 min before initiating the reaction by the addition of substrate. The initial rate was then measured by monitoring the increase in absorbance as a result of the release of 4-nitrophenol at 405 nm for up to five minutes. Ki determinations were performed using two different substrate concentrations. For each substrate concentration, a range of three to six inhibitor concentrations was used. Dixon plots (1/v vs. [I]) were constructed to validate the use of competitive inhibition model and to assess the fit of the data. The data were then fit to a competitive inhibition model using non-linear regression analysis with Grafit 7.0.3 (Erithacus Software, East Grinstead, UK).
Agrobacterium sp. β-glucosidase (Abg): [64, 65] 50 mM sodium phosphate buffer (pH 7).

Experiment [2] deals with lac Z β-galactosidase from E. coli (GH2) (Escherichia coli, UniProt P00722). Nature of the experiment: Ki determination, E. coli lac Z β-galactosidase. The conditions noted are these: pH 7, substrate pNP β-Gal, room temperature. Here is the method: as §1
E. coli lac z β-galactosidase: 50 mM sodium phosphate, 1.0 mM MgCl2 (pH 7). Substrate: pNP β-Gal, Km = 60 µM.

Experiment [3] deals with T2, Fabrazyme = commercial recombinant human lysosomal α-galactosidase (GH27) (Homo sapiens, UniProt P06280).
T2 construct: purchased Fabrazyme
T2 sequence (P06280 32-429): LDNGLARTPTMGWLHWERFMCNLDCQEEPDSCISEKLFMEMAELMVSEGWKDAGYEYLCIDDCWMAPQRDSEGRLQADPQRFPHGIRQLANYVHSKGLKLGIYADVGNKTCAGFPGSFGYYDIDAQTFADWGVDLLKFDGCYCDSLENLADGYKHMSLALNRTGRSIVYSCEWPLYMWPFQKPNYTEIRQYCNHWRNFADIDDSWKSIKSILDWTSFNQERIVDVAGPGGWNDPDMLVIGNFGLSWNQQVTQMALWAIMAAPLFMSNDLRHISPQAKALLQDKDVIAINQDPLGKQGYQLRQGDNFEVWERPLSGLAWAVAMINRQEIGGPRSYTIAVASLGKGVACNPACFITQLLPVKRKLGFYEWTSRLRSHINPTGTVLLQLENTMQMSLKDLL
Put plainly: Ki determination, Fabrazyme (acid α-galactosidase). The conditions noted are these: pH 5.5, substrate 2,4-DNP α-Gal, room temperature. Here is the method:
as §1, with “The initial rate was then measured by monitoring the increase in absorbance as a result of the release of 4-nitrophenol at 405 nm for up to five minutes.” left out
Fabrazyme (Acid α-galactosidase): 20 mM sodium citrate, 50 mM sodium phosphate, 1.0 mM tetrasodium EDTA, 0.25% v/v Triton X-100® and 0.25% w/v taurocholic acid buffer (pH 5.5).

The target of experiment [4] is α-glucosidase from Saccharomyces cerevisiae (GH13). Put plainly: Ki determination, S. cerevisiae α-glucosidase. To be noted: pH 7.0, substrate pNP α-Glc, room temperature; read-out: Ki S. cer. (GH13) α-Glc. The method, then:
as §1
S. cerevisiae α-Glucosidase: 50 mM sodium phosphate buffer (pH 7.0). Substrate: pNP α-Glc, Km = 0.75 mM.

Experiment [5] addresses T3, recombinant human lysosomal β-glucocerebrosidase (GCase, GH30) (Homo sapiens, UniProt P04062).
T3 sequence (P04062 40-536): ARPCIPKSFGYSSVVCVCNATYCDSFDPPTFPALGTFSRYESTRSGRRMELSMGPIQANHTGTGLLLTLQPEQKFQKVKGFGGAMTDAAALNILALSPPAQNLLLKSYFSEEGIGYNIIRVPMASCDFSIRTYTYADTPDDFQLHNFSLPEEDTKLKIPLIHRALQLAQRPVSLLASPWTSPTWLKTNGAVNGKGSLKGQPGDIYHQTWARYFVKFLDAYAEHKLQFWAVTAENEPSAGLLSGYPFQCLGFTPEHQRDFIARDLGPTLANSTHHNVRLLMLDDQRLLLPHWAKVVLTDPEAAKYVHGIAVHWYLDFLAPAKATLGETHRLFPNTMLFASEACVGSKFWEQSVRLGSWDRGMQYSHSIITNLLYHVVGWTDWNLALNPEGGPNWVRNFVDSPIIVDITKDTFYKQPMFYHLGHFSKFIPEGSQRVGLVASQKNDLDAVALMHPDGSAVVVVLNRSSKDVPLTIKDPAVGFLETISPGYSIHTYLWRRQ
Nature of the experiment: Ki determination, GCase (β-glucocerebrosidase). Here is the method: as §1
GCase (β-glucocerebrosidase): 20 mM sodium citrate, 50 mM sodium phosphate, 1.0 mM tetrasodium EDTA, 0.25% v/v Triton X-100® and 0.25% w/v taurocholic acid buffer (pH 7). Substrate: 2,4-DNP β-Glc, Km = 2.7 mM.

Where [6] appears, read: pH 7, substrate 2,4-DNP β-Glc, room temperature, read-out: Ki GCase (GH30) β-Glc.
[7] abbreviates: values repeated in running text, read-out: Ki for GCase.

lac Z β-galactosidase from E. coli (GH2), sequence (P00722 2-1024 limits assumed): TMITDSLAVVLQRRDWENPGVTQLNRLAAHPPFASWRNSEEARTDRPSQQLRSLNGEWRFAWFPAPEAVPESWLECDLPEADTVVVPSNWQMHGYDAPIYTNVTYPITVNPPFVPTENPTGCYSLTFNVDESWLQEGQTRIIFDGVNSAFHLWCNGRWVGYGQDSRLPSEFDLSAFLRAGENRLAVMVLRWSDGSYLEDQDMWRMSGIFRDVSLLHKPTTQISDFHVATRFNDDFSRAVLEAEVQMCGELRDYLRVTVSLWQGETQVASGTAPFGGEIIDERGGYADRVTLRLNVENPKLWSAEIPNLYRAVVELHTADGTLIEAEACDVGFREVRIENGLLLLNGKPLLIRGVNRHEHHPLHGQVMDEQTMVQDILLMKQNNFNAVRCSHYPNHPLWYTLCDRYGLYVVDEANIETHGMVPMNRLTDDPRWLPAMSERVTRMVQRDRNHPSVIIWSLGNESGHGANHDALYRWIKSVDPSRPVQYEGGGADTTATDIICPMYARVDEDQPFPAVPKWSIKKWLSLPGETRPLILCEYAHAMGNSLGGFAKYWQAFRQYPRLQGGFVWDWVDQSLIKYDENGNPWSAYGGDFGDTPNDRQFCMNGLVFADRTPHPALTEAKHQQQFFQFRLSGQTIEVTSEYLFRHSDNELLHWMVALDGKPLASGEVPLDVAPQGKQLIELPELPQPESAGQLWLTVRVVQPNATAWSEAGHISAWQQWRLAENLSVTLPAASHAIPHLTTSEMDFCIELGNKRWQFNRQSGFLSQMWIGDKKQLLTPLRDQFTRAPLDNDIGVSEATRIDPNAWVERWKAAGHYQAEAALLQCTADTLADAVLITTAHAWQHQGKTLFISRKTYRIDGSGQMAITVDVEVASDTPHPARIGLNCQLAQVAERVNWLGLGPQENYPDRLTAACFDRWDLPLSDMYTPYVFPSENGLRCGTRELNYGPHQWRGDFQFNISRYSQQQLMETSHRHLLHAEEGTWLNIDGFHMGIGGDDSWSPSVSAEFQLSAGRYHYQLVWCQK

As to `N#CCCCCCOc1ccc(C(=O)OCCCCCCN2C[C@H](O)[C@@H](O)[C@H](O)[C@H]2CO)cc1` [Compound 45, N-(6-((4-((5-Cyanopentyl)oxy)benzoyl)oxy)hexyl)-1,5-dideoxy-1,5-imino-D-glucitol], the Ki in experiment [1] was 1.31 µM; in experiment [2], more than 1000 µM; in experiment [3], more than 1000 µM; in experiment [4], 23.7 µM; in experiment [5] (setting [6]), 0.28 µM.

Take `N#CCCCCCOc1ccc(C(=O)OCCCCCCN2C[C@@H](O)[C@H](O)[C@@H](O)C2)cc1` [Compound 46, N-(6-((4-((5-Cyanopentyl)oxy)benzoyl)oxy)hexyl)-1,5-dideoxy-1,5-imino-D-xylitol]: the Ki in experiment [1] is 12.1 µM; in experiment [2], more than 1000 µM; in experiment [3] it was more than 1000 µM; in experiment [4], more than 1000 µM; in experiment [5] (setting [6]), 0.62 µM.

On to `[N-]=[N+]=NCCOCCOc1ccc(C(=O)OCCCCCCN2C[C@H](O)[C@@H](O)[C@H](O)[C@H]2CO)cc1` [Compound 47, N-(6-((4-(2-(2-Azidoethoxy)ethoxy)benzoyl)oxy)hexyl)-1,5-dideoxy-1,5-imino-D-glucitol], for which the Ki in experiment [1] was 1.7 µM; in experiment [2] it was more than 1000 µM; in experiment [3] it was more than 1000 µM; in experiment [4] it was 221 µM; in experiment [5] (setting [6]), 0.09 µM.

As for `[N-]=[N+]=NCCOCCOc1ccc(C(=O)OCCCCCCN2C[C@@H](O)[C@H](O)[C@@H](O)C2)cc1` [Compound 48, N-(6-((4-(2-(2-Azidoethoxy)ethoxy)benzoyl)oxy)hexyl)-1,5-dideoxy-1,5-imino-D-xylitol], the Ki in experiment [1] is 32.6 µM; in experiment [2], more than 1000 µM; in experiment [3], more than 1000 µM; in experiment [4], more than 1000 µM; in experiment [5] (setting [6]) it was 1.4 µM.

As for `O=C(OCCCCCCN1C[C@H](O)[C@@H](O)[C@H](O)[C@H]1CO)c1ccc(OCCOCCOC(C(F)(F)F)(C(F)(F)F)C(F)(F)F)cc1` [Compound 49, N-(6-((4-(2-(2-(Nonafluoro-tert-butyloxy)ethoxy)ethoxy)benzoyl)oxy)hexyl)-1,5-dideoxy-1,5-imino-D-glucitol], the Ki in experiment [1] is 3.6 µM; in experiment [2], more than 1000 µM; in experiment [3] it was more than 1000 µM; in experiment [4], more than 1000 µM; in experiment [5] (setting [6]), 0.35 µM.

As to `O=C(OCCCCCCN1C[C@@H](O)[C@H](O)[C@@H](O)C1)c1ccc(OCCOCCOC(C(F)(F)F)(C(F)(F)F)C(F)(F)F)cc1` [Compound 50, N-(6-((4-(2-(2-(Nonafluoro-tert-butyloxy)ethoxy)ethoxy)benzoyl)oxy)hexyl)-1,5-dideoxy-1,5-imino-D-xylitol], the Ki in experiment [1] was 23.7 µM; in experiment [2] it was 255 µM; in experiment [3], more than 1000 µM; in experiment [4], more than 1000 µM; in experiment [5] (setting [6]), 0.4 µM.

As for `C#CCOc1ccc(C(=O)OCCCCCCN2C[C@H](O)[C@@H](O)[C@H](O)[C@H]2CO)cc1` [Compound 51, N-(6-((4-(Propargyloxy)benzoyl)oxy)hexyl)-1,5-dideoxy-1,5-imino-D-glucitol], the Ki is 0.0022 µM in experiment [1]; more than 1000 µM in experiment [2]; more than 1000 µM in experiment [3]; 4.9 µM in experiment [4]; 0.37 µM in experiment [5] (setting [6]).

On to `C#CCOc1ccc(C(=O)OCCCCCCN2C[C@@H](O)[C@H](O)[C@@H](O)C2)cc1` [Compound 52, N-(6-((4-(Propargyloxy)benzoyl)oxy)hexyl)-1,5-dideoxy-1,5-imino-D-xylitol], for which the Ki in experiment [2] is more than 1000 µM; in experiment [3], more than 1000 µM; in experiment [4], 267 µM; in experiment [5] (setting [6]), 0.74 µM.

Consider `O=C(NCCc1ccc(C(=O)OCCCCCCN2C[C@H](O)[C@@H](O)[C@H](O)[C@H]2CO)cc1)OCc1ccccc1` [Compound 53, N-(6-((4-(2-(((Benzyloxy)carbonyl)amino)ethyl)benzoyl)oxy)hexyl)-1,5-dideoxy-1,5-imino-D-glucitol], for which the Ki is 0.06 µM in experiment [1]; 424 µM in experiment [2]; more than 1000 µM in experiment [3]; 8.1 µM in experiment [4]; 0.022 µM in experiment [5] (setting [7]).

Turning to `O=C(NCCc1ccc(C(=O)OCCCCCCN2C[C@@H](O)[C@H](O)[C@@H](O)C2)cc1)OCc1ccccc1` [Compound 54, N-(6-((4-(2-(((Benzyloxy)carbonyl)amino)ethyl)benzoyl)oxy)hexyl)-1,5-dideoxy-1,5-imino-D-xylitol], the Ki in experiment [1] is 0.58 µM; in experiment [2], more than 1000 µM; in experiment [3] it was more than 1000 µM; in experiment [4], more than 1000 µM; in experiment [5] (setting [6]), 0.31 µM.

Turning to `CN(C)c1cccc2c(S(=O)(=O)NCCc3ccc(C(=O)OCCCCCCN4C[C@H](O)[C@@H](O)[C@H](O)[C@H]4CO)cc3)cccc12` [Compound 55, N-(6-((4-(2-(Dansylamino)ethyl)benzoyl)oxy)hexyl)-1,5-dideoxy-1,5-imino-D-glucitol], the Ki in experiment [1] was 0.06 µM; in experiment [2] it was 89 µM; in experiment [3], more than 1000 µM; in experiment [4] it was 8.7 µM; in experiment [5] (setting [7]), 0.018 µM.

`CN(C)c1cccc2c(S(=O)(=O)NCCc3ccc(C(=O)OCCCCCCN4C[C@@H](O)[C@H](O)[C@@H](O)C4)cc3)cccc12` [Compound 56, N-(6-((4-(2-(Dansylamino)ethyl)benzoyl)oxy)hexyl)-1,5-dideoxy-1,5-imino-D-xylitol]: the Ki in experiment [1] is 0.76 µM; in experiment [2], 198 µM; in experiment [3], more than 1000 µM; in experiment [4], more than 1000 µM.
